{"source": "paper PMC10527014", "about": "(Antiviral research, 2023)", "key": {"Coxsackievirus B5 (CVB5)": {"system": "Coxsackievirus B5 (CVB5)", "experiment": "CVB5 CPE rescue", "format": "cell-based"}, "Polio virus 1 Mahoney": {"system": "Polio virus 1 Mahoney", "format": "cell-based", "conditions": "read-out: 90% Effective concentration EC90, Vero 76, virus yield reduction"}, "[1]": {"system": "EVD68, strain IL/14-18952 (IL52)", "experiment": "Preliminary EVD68 inhibition at single concentration, VP1 qPCR in RD cells", "format": "cell-based, EV-D68", "conditions": "5 μM, preliminary work, Fig. S2"}, "CYP2D6": {"target": "CYP2D6 (Homo sapiens, UniProt P10635)", "sequence (P10635 whole entry)": "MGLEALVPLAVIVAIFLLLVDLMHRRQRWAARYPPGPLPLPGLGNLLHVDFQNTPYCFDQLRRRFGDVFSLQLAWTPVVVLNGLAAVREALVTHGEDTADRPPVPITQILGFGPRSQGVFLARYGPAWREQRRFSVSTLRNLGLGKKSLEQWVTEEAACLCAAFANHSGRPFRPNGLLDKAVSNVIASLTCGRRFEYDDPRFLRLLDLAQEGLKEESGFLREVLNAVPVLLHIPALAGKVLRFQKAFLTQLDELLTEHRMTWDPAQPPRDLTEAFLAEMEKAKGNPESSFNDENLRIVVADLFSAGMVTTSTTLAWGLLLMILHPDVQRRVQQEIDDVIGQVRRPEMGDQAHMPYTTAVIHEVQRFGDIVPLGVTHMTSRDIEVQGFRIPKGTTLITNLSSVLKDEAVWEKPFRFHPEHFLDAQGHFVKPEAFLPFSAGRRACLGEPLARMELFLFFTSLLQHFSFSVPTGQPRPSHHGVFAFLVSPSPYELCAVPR", "experiment": "CYP inhibition, CYP2D6", "format": "in vitro ADME", "conditions": "read-out: CYP inhibition"}, "CYP2C19": {"target": "CYP2C19 (Homo sapiens, UniProt P33261)", "sequence (P33261 whole entry)": "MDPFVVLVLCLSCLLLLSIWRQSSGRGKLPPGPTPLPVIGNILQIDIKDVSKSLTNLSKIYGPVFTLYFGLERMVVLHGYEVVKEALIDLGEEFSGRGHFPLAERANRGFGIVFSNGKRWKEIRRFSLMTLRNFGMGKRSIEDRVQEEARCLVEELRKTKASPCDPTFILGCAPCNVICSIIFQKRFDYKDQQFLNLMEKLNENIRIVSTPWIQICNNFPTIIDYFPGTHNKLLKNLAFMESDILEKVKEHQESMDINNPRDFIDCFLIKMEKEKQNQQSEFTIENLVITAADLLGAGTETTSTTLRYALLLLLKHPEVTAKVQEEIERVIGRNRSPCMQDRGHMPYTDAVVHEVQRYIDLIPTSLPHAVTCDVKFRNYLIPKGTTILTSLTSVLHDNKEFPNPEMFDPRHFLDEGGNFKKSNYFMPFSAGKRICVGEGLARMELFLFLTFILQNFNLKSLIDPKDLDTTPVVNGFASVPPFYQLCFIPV", "experiment": "CYP inhibition, CYP2C19", "format": "in vitro ADME", "conditions": "read-out: CYP inhibition"}, "Mouse plasma stability": {"experiment": "Mouse plasma stability", "format": "in vitro ADME", "conditions": "@ 5 hr, 37°C"}, "[2]": {"target": "T1, pregnane X-receptor (PXR) (Homo sapiens, UniProt O75469)", "T1 sequence (O75469 1-434)": "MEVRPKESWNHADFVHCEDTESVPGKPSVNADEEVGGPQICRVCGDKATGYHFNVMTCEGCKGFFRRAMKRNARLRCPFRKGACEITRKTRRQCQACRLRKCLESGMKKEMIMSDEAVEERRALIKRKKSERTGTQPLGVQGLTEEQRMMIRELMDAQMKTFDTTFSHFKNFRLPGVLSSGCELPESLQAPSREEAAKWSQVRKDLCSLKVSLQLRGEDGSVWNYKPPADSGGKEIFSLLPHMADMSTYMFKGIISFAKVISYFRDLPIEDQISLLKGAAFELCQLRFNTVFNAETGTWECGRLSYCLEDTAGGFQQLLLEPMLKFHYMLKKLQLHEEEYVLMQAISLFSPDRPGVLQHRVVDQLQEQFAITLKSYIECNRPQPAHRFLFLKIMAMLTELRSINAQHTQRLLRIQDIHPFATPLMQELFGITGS", "experiment": "PXR agonist activity"}, "[3]": {"experiment": "Maximum tolerated dose study in AG129 mice", "format": "in vivo"}, "[4]": {"system": "EV-D68 MP30 PP (mouse-adapted US/MO/14-18949)", "experiment": "EV-D68 respiratory infection model in four-week-old AG129 mice", "format": "in vivo"}, "mouse-adapted CVB5": {"system": "mouse-adapted CVB5", "experiment": "Mouse model of CVB5-induced pancreatitis", "format": "in vivo, BALB/c mice"}, "Coxsackie B3 HA 201933": {"system": "Coxsackie B3 HA 201933", "conditions": "read-out: 50% Effective concentration EC50; Coxsackie B3 HA 201933, Vero 76, CPE"}, "EV-D68 US/MO/14-18949": {"system": "EV-D68 US/MO/14-18949", "conditions": "read-out: 50% Effective concentration EC50; EV-D68 US/MO/14-18949, RD; n=3, 4 concentrations (log10 dilution series)"}}, "note": "Where two headings read alike, the source gives them in different places.", "data": [{"molecule": "Cc1cc(-c2noc(C(F)(F)F)n2)ccc1OCCCc1cc(C(=O)N(C)C)no1", "note": "[compound 11526092, 3-(3-methyl-4-(3-(3-N,N-dimethylcarbamoyl-isoxazol-5-yl)propoxy)phenyl)-5-trifluoromethyl-1,2,4-oxadiazole]", "values": [{"measurement": "EC50", "setting": "Coxsackievirus B5 (CVB5); read-out: 50% Effective concentration EC50", "result": 1, "unit": "nM"}, {"measurement": "EC50", "setting": "Coxsackievirus B5 (CVB5); read-out: EC50 against CVB5, Vero cells, text values (Fig. S3)", "result": 1.1, "unit": "nM"}, {"measurement": "EC90", "setting": "Polio virus 1 Mahoney", "result": 520, "unit": "nM"}, {"measurement": "Antiviral effect in RD cells infected with EV-D68", "setting": "[1]", "result": "greatest antiviral effect"}, {"measurement": "IC50", "setting": "CYP2D6", "result": "> 50", "unit": "µM"}, {"measurement": "IC50", "setting": "CYP2C19", "result": 2100, "unit": "nM"}, {"measurement": "Mouse plasma stability", "setting": "Mouse plasma stability", "result": "81.1% @ 5 hr, 37 °C"}, {"measurement": "PXR agonism (in words)", "setting": "[2]", "result": "neither 11526092 nor pleconaril is an agonist"}, {"measurement": "EC50", "setting": "[2]; read-out: PXR EC50", "result": "> 100", "unit": "µM"}, {"measurement": "Maximum tolerated dose", "setting": "[3]; given IP", "result": "> 10", "unit": "mg/kg"}, {"measurement": "Maximum tolerated dose", "setting": "[3]; given PO", "result": "> 100", "unit": "mg/kg"}, {"measurement": "Lung concentration of IFN-γ", "setting": "[4]; 10 mg/kg, day 1", "result": "reductions"}, {"measurement": "Lung concentration of IL-10", "setting": "[4]; 10 mg/kg, day 5", "result": "increase"}, {"measurement": "Lung virus titer", "setting": "[4]; 30 mg dose, day 5 p.i., P≤0.05 vs placebo", "result": "significant reduction"}, {"measurement": "Lung concentration of MIP-1α", "setting": "[4]; 30 mg/kg, day 5", "result": "increase"}, {"measurement": "Lung concentration of MCP-1", "setting": "[4]; 100 mg/kg, day 1", "result": "reductions"}, {"measurement": "Lung concentration of IL-1α", "setting": "[4]; 100 mg/kg, day 3", "result": "increase"}, {"measurement": "Lung concentration of IL-1β", "setting": "[4]; 100 mg/kg, day 3", "result": "increase"}, {"measurement": "Lung concentration of IL-4", "setting": "[4]; 100 mg/kg, day 3", "result": "increase"}, {"measurement": "Lung concentration of IL-6", "setting": "[4]; 100 mg/kg, day 3", "result": "increase"}, {"measurement": "Protection from weight loss (percentage of initial body weight)", "setting": "[4]; 100 mg/kg/d PO, P<0.05, Fig. S16", "result": "significant protection from weight loss"}, {"measurement": "Decrease of viremia", "setting": "[4]; abstract", "result": 3, "unit": "log"}, {"measurement": "Lung concentration of RANTES", "setting": "[4]; all doses, day 1, P≤0.01 - P≤0.0001", "result": "significantly reduced"}, {"measurement": "Lung concentration of GM-CSF", "setting": "[4]; all doses, day 1, P≤0.01 - P≤0.001", "result": "significantly reduced"}, {"measurement": "Lung concentration of IL-3", "setting": "[4]; all doses, day 1, P≤0.05", "result": "significantly reduced"}, {"measurement": "Lung concentration of IL-5", "setting": "[4]; all doses, day 1, P≤0.05", "result": "significantly reduced"}, {"measurement": "Virus titers in the blood (viremia)", "setting": "[4]; all doses, days 1 and 3 p.i., P≤0.0001", "result": "reduce viremia"}, {"measurement": "Lung virus titers", "setting": "[4]; day 3 p.i., this study", "result": "did not demonstrate any antiviral activity"}, {"measurement": "Reduction in lung titer", "setting": "[4]; day 5, abstract", "result": 1, "unit": "log"}, {"measurement": "Relative fold gene expression in the pancreas (qPCR)", "setting": "mouse-adapted CVB5; 100 mg/kg per day, Fig. 5B", "result": "statistically significant (P≤0.05) decrease"}, {"measurement": "Histology of pancreatic tissue", "setting": "mouse-adapted CVB5; CVB5-infected mice, Fig. S20", "result": "no signs of tissue damage"}, {"measurement": "EC50", "setting": "Coxsackie B3 HA 201933", "result": 1010, "unit": "nM"}, {"measurement": "EC50", "setting": "EV-D68 US/MO/14-18949", "result": "< 100", "unit": "nM"}, {"measurement": "CC50", "setting": "Vero 76", "result": 10.8, "unit": "µM"}, {"measurement": "CC50", "setting": "Vero 76; read-out: 50% Cytotoxic concentration CC50, Vero 76, line of Coxsackie B3 HA 201933", "result": 8, "unit": "µM"}, {"measurement": "CC50", "setting": "Vero 76; read-out: 50% Cytotoxic concentration CC50, Vero 76, line of Coxsackie B3 Nancy", "result": 8, "unit": "µM"}, {"measurement": "CC50", "setting": "Vero 76; read-out: 50% Cytotoxic concentration CC50, Vero 76, line of EV-71", "result": 8.25, "unit": "µM"}, {"measurement": "CC50", "setting": "Vero 76; read-out: 50% Cytotoxic concentration CC50, Vero 76, line of SARS-CoV-2", "result": 7.54, "unit": "µM"}]}]}
